{
  "source": "patent US9233954B2",
  "about": "“Organic amine salts of Azilsartan, preparation method and use thereof” (Jiangsu Hansoh Pharmaceutical Co., Ltd., priority 2011, dated 2016)",
  "key": {"[1]": {"tested_on": "hypertension rats induced by Angiotensin II", "experiment": "Effect on the hypertension rats induced by angiotensin II (DSI telemetry)", "assay_type": "in vivo, Sprague-Dawley rats", "conditions": "for The average MBP over 23 hours before administration: baseline before single intragastric dose; for The average MBP over 23 hours before administration / Average blood pressure 1 hr after administration / Average blood pressure 2 hr after administration / Average blood pressure 3 hr before administration / Average blood pressure 7 hr after administration / Average blood pressure 13 hr after administration / Average blood pressure 13 hr before administration / Average blood pressure 18 hr after administration / Average blood pressure 23 hr after administration / Average blood pressure 23 hr before administration / The average MBP over 23 hours after administration: Mean±S.E., N=8; for Average ratio of reduction of the average blood pressure: average value after administration over 23 hours", "method": "The Effect on the Hypertension Rats Induced by Angiotensin II\nThe dosage of angiotensin II was determined according to literature (Harrison-Bernard L M, Zhuo J, Kobori H, Ohishi M, Navar L G. Intrarenal A T (1) receptor and ACE binding in ANG II-induced hypertensive rats. Am. J. Physiol. Renal Physiol. 2002 January; 282(1):F19-25; Diz D I, Baer P G, Nasjletti A. Angiotensin II-induced hypertension in the rat. Effects on the plasma concentration, renal excretion, and tissue release of prostaglandins. J. Clin. Invest. 1983 August; 72(2):466-77.). Angiotensin II was precisely weighed and diluted with sterile saline up to a concentration of 14.4 mg/mL, then mixed slightly until clear and stored at −20° C. in the dark.\nHS-10149 suspension: the compounds were precisely weighed and diluted with 2% of Ceolus suspension in a gradient of 0.20 mg/ml, 0.06 mg/ml, 0.02 mg/ml, then the suspension was stirred until dissolution and stored at 4° C. in the dark. The sample was warmed to room temperature in advance before administration and mixed to uniform.\nThe animals with required weight (female: 230-250 g, male: 200-220 g) were selected after adaptation for one week. The male rats were subjected to combined anesthesia of ketamine (44 mg/kg, im.) and 2% pentobarbital sodium solution (30 mg/kg, ip), and the female rates were narcotized with 2% pentobarbital sodium solution (40 mg/kg, ip). The implants were implanted on day 0 and the blood pressure was continuously monitored for 24 hours from the 7th day after implantation of a micro osmotic pump. The animals with mean systolic blood pressure (MSBP) up to 140 mmHg over 24 hours were considered as standard screening animals. The qualified animals were used in the test and the unqualified animals were excluded.\nThe qualified animals were divided into groups according to their MSBP over 24 hours, 8 animals for each group with half female and half male. 8 animals for each group met the requirement of statistical tests and the requirement of pharmacodynamics guiding principles.\nAfter grouping, the solvent control, low, middle and high dosage animal groups were intragastrically administered with 2% Ceolus, 0.1 mg/kg, 0.3 mg/kg and 1.0 mg/kg of HS-10149, respectively. The administration time was 10:00 and 10:30 a.m. and the administration volume was 5 mL/kg.\n(4) Experimental Process Healthy animals were implanted with implants at day 0 and a micro osmotic pump was implanted subcutaneously at day 8. The blood pressure was monitored for 24 hours from the 15th day and the animals with qualified blood pressure were selected to test. Positive drug or test sample was administered once at 10:00 a.m. on the 16th day and the blood pressure was monitored after administration for 24 hours. At the end of the test, the animals were sacrificed by excessive carbon dioxide. 5. Handling and Analysis of Data\nThe data were recorded every 5 s automatically by the DSI remote sensing pressure measuring device. The mean value calculated within an hour as unit by the software was considered as initial data."}, "Hygroscopicity test": {"experiment": "Hygroscopicity test", "assay_type": "physicochemical", "conditions": "25° C.±1° C., RH 80%±2%, 24 h", "method": "1. A dried glass weighing bottle (Outer diameter […]) with a plug was put into an artificial climate box under the temperature of 25° C.±1° C. and relative humidity (RH) of 80%±2% the day before and then weighed precisely (m1).\n2. The testing sample was weighed precisely (m2) and lain into the weighing bottle. The thickness of the test sample was about 1 mm.\n3. The uncovered weighing bottle and its plug were placed under the above constant temperature and humidity conditions for 24 h.\n4. The weighing bottle was covered and weighed precisely (m3).\nCalculation formula: Percent of weight increase=(m3−m2)/(m2−m1)*100%\n5. Definition of the weight increase of the hygroscopicity\nDeliquescence: absorbing enough water to form liquid.\nHigh hygroscopicity: the weight increase of the hygroscopicity is no less than 15%\nHaving hygroscopicity: the weight increase of the hygroscopicity is between 15% and 2%\nSlight hygroscopicity: the weight increase of the hygroscopicity is between 2% and 0.2%\nNo or almost no hygroscopicity: the weight increase of the hygroscopicity is less than 0.2%"}, "[2]": {"tested_on": "blood pressure of SHR rats", "experiment": "Antihypertensive effect test for spontaneously hypertensive (SHR) rats", "assay_type": "in vivo", "conditions": "10 mg/kg", "method": "Antihypertensive Effect Test For Spontaneously Hypertensive (SHR) Rats\n[…] of 25 week old SHR male rats were randomly divided into 4 groups according to the initial blood pressure, with 6 for the control group (solvent) and 8 for other groups. 10 mg/kg of example 2 compound (Choline Azilsartan), example 4 compound (Azilsartan ethanolamine salts) and control (Azilsartan medoxomil potassium salt) were continuously administered, respectively. The solvent control group was administered solvent. The administration volume was 5 ml/kg and the period was 2 weeks."}, "[3]": {"conditions": "rat, in vivo, po", "procedure": "Drug Metabolism Test of Sprague Dawley (SD) Rats after Administration\nTwelve SD rats that weighed 200-250 g were randomly divided into two groups with each group having 6 rats, half male and half female. […] 0.5 ml blood were collected from orbit before administration and at 0.5, 1.0, 2.0, 3.0, 4.0, 5.0, 7.0, 10, 24 and 48 h after administration. Plasma concentration of Azilsartan (TAK-536), M1 (product of decarboxylation of Azilsartan) and M2 (product of O-dealkylation) was measured."}},
  "data": [
    {"smiles": "CCOc1nc2cccc(C(=O)O)c2n1Cc1ccc(-c2ccccc2-c2noc(=O)[nH]2)cc1.CCOc1nc2cccc(C(=O)[O-])c2n1Cc1ccc(-c2ccccc2-c2noc(=O)[nH]2)cc1.C[N+](C)(C)CCO", "note": "[Example 2]", "values": [
      {"measurement": "The average MBP over 23 hours before administration", "setting": "[1]; 0.1 mg/kg group", "result": "146 ± 5", "unit": "mmHg"},
      {"measurement": "Average blood pressure 1 hr after administration", "setting": "[1]; 0.1 mg/kg group", "result": "128 ± 8"},
      {"measurement": "Average blood pressure 2 hr after administration", "setting": "[1]; 0.1 mg/kg group", "result": "102 ± 9"},
      {"measurement": "Average blood pressure 3 hr before administration", "setting": "[1]; 0.1 mg/kg group", "result": "128 ± 9"},
      {"measurement": "Average blood pressure 7 hr after administration", "setting": "[1]; 0.1 mg/kg group", "result": "91 ± 5"},
      {"measurement": "Average blood pressure 13 hr after administration", "setting": "[1]; 0.1 mg/kg group", "result": "110 ± 3"},
      {"measurement": "Average blood pressure 13 hr before administration", "setting": "[1]; 0.1 mg/kg group", "result": "144 ± 7"},
      {"measurement": "Average blood pressure 18 hr after administration", "setting": "[1]; 0.1 mg/kg group", "result": "114 ± 3"},
      {"measurement": "Average blood pressure 23 hr after administration", "setting": "[1]; 0.1 mg/kg group", "result": "109 ± 5"},
      {"measurement": "Average blood pressure 23 hr before administration", "setting": "[1]; 0.1 mg/kg group", "result": "142 ± 8"},
      {"measurement": "The average MBP over 23 hours after administration", "setting": "[1]; 0.1 mg/kg single intragastric dose", "result": "110 ± 3", "unit": "mmHg"},
      {"measurement": "Antihypertension effect in the hypertension rat models induced by angiotensin II", "setting": "[1]; 0.1 mg/kg to 1.0 mg/kg", "result": "significant antihypertension effect"},
      {"measurement": "Average ratio of reduction of the average blood pressure", "setting": "[1]; 0.1 mg/kg", "result": 24.7, "unit": "%"},
      {"measurement": "The average MBP over 23 hours before administration", "setting": "[1]; 0.3 mg/kg group", "result": "145 ± 5", "unit": "mmHg"},
      {"measurement": "Average blood pressure 1 hr after administration", "setting": "[1]; 0.3 mg/kg group", "result": "119 ± 11"},
      {"measurement": "Average blood pressure 2 hr after administration", "setting": "[1]; 0.3 mg/kg group", "result": "83 ± 6"},
      {"measurement": "Average blood pressure 3 hr before administration", "setting": "[1]; 0.3 mg/kg group", "result": "124 ± 10"},
      {"measurement": "Average blood pressure 7 hr after administration", "setting": "[1]; 0.3 mg/kg group", "result": "77 ± 4"},
      {"measurement": "Average blood pressure 13 hr after administration", "setting": "[1]; 0.3 mg/kg group", "result": "91 ± 8"},
      {"measurement": "Average blood pressure 13 hr before administration", "setting": "[1]; 0.3 mg/kg group", "result": "150 ± 6"},
      {"measurement": "Average blood pressure 18 hr after administration", "setting": "[1]; 0.3 mg/kg group", "result": "108 ± 10"},
      {"measurement": "Average blood pressure 23 hr after administration", "setting": "[1]; 0.3 mg/kg group", "result": "93 ± 3"},
      {"measurement": "Average blood pressure 23 hr before administration", "setting": "[1]; 0.3 mg/kg group", "result": "147 ± 8"},
      {"measurement": "The average MBP over 23 hours after administration", "setting": "[1]; 0.3 mg/kg single intragastric dose", "result": "88 ± 7", "unit": "mmHg"},
      {"measurement": "Average ratio of reduction of the average blood pressure", "setting": "[1]; 0.3 mg/kg", "result": 39.3, "unit": "%"},
      {"measurement": "The average MBP over 23 hours before administration", "setting": "[1]; 1.0 mg/kg group", "result": "147 ± 5", "unit": "mmHg"},
      {"measurement": "Average blood pressure 1 hr after administration", "setting": "[1]; 1.0 mg/kg group", "result": "118 ± 6"},
      {"measurement": "Average blood pressure 2 hr after administration", "setting": "[1]; 1.0 mg/kg group", "result": "85 ± 5"},
      {"measurement": "Average blood pressure 3 hr before administration", "setting": "[1]; 1.0 mg/kg group", "result": "129 ± 9"},
      {"measurement": "Average blood pressure 7 hr after administration", "setting": "[1]; 1.0 mg/kg group", "result": "74 ± 4"},
      {"measurement": "Average blood pressure 13 hr after administration", "setting": "[1]; 1.0 mg/kg group", "result": "76 ± 6"},
      {"measurement": "Average blood pressure 13 hr before administration", "setting": "[1]; 1.0 mg/kg group", "result": "149 ± 7"},
      {"measurement": "Average blood pressure 18 hr after administration", "setting": "[1]; 1.0 mg/kg group", "result": "80 ± 5"},
      {"measurement": "Average blood pressure 23 hr after administration", "setting": "[1]; 1.0 mg/kg group", "result": "81 ± 5"},
      {"measurement": "Average blood pressure 23 hr before administration", "setting": "[1]; 1.0 mg/kg group", "result": "146 ± 9"},
      {"measurement": "The average MBP over 23 hours after administration", "setting": "[1]; 1.0 mg/kg single intragastric dose", "result": "81 ± 5", "unit": "mmHg"},
      {"measurement": "Average ratio of reduction of the average blood pressure", "setting": "[1]; 1.0 mg/kg", "result": 44.9, "unit": "%"},
      {"measurement": "Minimum effective dose", "setting": "[1]; single intragastric administration", "result": 0.1, "unit": "mg/kg"},
      {"measurement": "Duration of the effect after single administration", "setting": "[1]; single intragastric administration, 0.1-1.0 mg/kg", "result": "about 23 hours"},
      {"measurement": "Hygroscopicity (percent of weight increase)", "setting": "Hygroscopicity test", "result": 0.02, "unit": "%"},
      {"measurement": "Conclusion (hygroscopic or not)", "setting": "Hygroscopicity test; listed as Example 2 Compound", "result": "No"},
      {"measurement": "Conclusion (hygroscopic or not)", "setting": "Hygroscopicity test; listed as example 2 compound", "result": "not hygroscopic"},
      {"measurement": "Antihypertensive effect compared with control (Azilsartan medoxomil potassium salt)", "setting": "[2]; SHR rats, 2 weeks", "result": "superior to the antihypertensive effect of control"},
      {"measurement": "Antihypertensive effect, ranking under the same dosage", "setting": "[2]; SHR rats, 2 weeks", "result": "optimal"},
      {"measurement": "Effect on blood pressure of SHR rats compared with solvent control", "setting": "[2]; continuously administered for one or two weeks, FIG. 4", "result": "reduce the blood pressure of SHR rats significantly"},
      {"measurement": "Increase of AUC of Azilsartan acid in the plasma", "setting": "[3]", "result": 70, "unit": "%"},
      {"measurement": "Increase of Cmax of Azilsartan acid in the plasma", "setting": "[3]", "result": 98, "unit": "%"}
    ]}
  ]
}
